{"source": "patent US20070293560A1", "about": "“Compounds and compositions” (priority 2006, published 2007)", "key": {"[1]": {"target": "T1, m-calpain (Homo sapiens, UniProt P17655)", "T1 sequence (P17655 1-700)": "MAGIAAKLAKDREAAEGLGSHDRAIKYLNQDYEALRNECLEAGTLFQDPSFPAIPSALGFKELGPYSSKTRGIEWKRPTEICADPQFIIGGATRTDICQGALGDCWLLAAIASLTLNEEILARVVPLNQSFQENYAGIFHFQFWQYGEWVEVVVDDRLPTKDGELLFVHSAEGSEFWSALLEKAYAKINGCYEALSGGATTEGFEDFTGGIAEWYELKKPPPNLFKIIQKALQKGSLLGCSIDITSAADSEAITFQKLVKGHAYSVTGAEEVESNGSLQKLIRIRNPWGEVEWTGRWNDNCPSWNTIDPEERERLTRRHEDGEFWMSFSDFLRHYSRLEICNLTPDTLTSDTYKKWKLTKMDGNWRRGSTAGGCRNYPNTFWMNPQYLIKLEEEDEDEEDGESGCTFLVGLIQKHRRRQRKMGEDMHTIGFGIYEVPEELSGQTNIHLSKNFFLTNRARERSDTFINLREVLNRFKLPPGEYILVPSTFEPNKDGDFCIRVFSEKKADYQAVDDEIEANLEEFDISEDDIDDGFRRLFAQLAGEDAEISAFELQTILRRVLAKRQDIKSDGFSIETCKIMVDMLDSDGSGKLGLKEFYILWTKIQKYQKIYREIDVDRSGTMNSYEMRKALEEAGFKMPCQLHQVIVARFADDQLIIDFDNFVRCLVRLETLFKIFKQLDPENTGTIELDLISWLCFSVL", "T1 sequence (P04632 1-268 partner)": "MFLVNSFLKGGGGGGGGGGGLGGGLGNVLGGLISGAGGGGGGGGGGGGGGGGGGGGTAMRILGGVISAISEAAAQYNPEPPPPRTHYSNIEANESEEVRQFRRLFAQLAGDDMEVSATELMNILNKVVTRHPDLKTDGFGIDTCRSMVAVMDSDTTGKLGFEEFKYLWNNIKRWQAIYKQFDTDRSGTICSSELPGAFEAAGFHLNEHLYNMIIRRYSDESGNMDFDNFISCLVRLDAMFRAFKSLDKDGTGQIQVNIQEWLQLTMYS", "assay": "m-calpain inhibition, fluorescence-based assay with BODIPY-casein substrate", "format": "biochemical", "protocol": "The peptidic alcohol 3 and aldehyde 6 were assayed against m-calpain using a BODIPY-casein substrate in the fluorescence-based assay procedure of V. F. Thompson, S. Saldana, J. Cong and D. E. Goll, Anal. Biochem. 2000, 279, 170.\nThe results of the enzyme inhibition assay for 3 and 6 are graphically represented in FIGS. 1 and 2, respectively."}, "[2]": {"assay": "Ovine cornea penetration, modified Ussing chamber and LCMS", "format": "in vitro ADME", "settings": "adult ovine cornea, Ussing chamber, 37° C., 3 hours, LCMS", "protocol": "The peptidic aldehyde 6 was assayed for ovine cornea penetration using a modified Ussing chamber and LCMS based on the procedure of Youn Bok Chung, Kun Han and Vincent H. L. Lee, Pharmaceutical Research, 2000, 15, 1882. Compound 6 (3.5 mg) was dissolved in buffer A (5 mL) and added to the epithelial side a modified Ussing chamber with a pre-mounted adult ovine cornea. Buffer B (5 mL) was added to the endothelial side of the chamber and the whole chamber was incubated 37° C. for 3 hours, 5% CO2. Samples were taken from both sides of the chamber at time=0 and 180 minutes. The samples were analysed for compound 6 using LCMS."}, "[3]": {"test_system": "adult ovine lens", "assay": "In vitro lens culture assay, calcium induced cataract", "format": "cell-based", "settings": "ovine lens preincubated with 0.8 μM for 2 hours, then 5 mM calcium chloride for 20 hours", "protocol": "The ability of the peptidic aldehyde 6 to prevent the formation of a calcium induced cataract in adult ovine lens was assayed using the procedure of J. Sanderson, J. M. Marciantonio and G. A. Duncan, Invest. Opth. Vis. Sci. 2000, 41, 2255. Three pairs of lenses were tested. One lens from each pair was preincubated with [0.8 μM] 6 for 2 hours while the other was incubated in EMEM-culture media at 35° C., 5% CO2. Then 5 mM calcium chloride was added onto both the inhibitor treated lens and the other lens, and both lenses were then incubated for 20 hours. One pair of lenses was photographed when the assay had been completed."}, "[4]": {"test_system": "cataracts", "assay": "In vivo cataract progression in lambs, ointment on the eye", "set-up": "species or system lamb", "settings": "1% ointment (25 mg) twice daily, 24 lambs", "protocol": "An ointment (25 mg) comprising 1% of the peptidic aldehyde 6 was applied twice daily to the left eye of 24 lambs for three months starting when they were two to three months old. The progression of cataracts was determined by a veterinary opthalmologist with a slit-lamp microscope."}, "[5]": {"assay": "In vivo eye irritation in a lamb after ointment application", "settings": "1% ointment (50 mg) applied to one eye of a lamb, three times in one day", "protocol": "(§1) An ointment (50 mg) comprising 1% of the peptidic aldehyde 6 was applied to one eye of a lamb, three times in one day."}, "[6]": {"assay": "Detection of 6 in ovine body parts by LCMS after ointment application to one eye", "format": "in vivo, lamb", "settings": "for Compound 6 detected: 1% ointment 50 mg three times in one day", "protocol": "as §1\nVarious body parts were assayed for trace amounts of 6 by LCMS using a method similar to that described by A. Maltese and C. Bucolo, Biomedical Chromatography 2000, 16, 274. A rapid high-performance liquid chromatographic method using a C18 reversed-phase column with UV detection at 254 nm was used for the analysis of 6 in ovine samples. A water solution containing 2% ZnSO4.7H2O was used to deproteinise the samples. The mobile phase consisted of CH3CN and H2O containing 0.05% TFA."}}, "note": "pIC50: −log10 of the molar value.", "data": [{"smiles": "CC(C)C[C@@H](CO)NC(=O)[C@@H](NC(=O)c1ccc(C=O)o1)C(C)C", "note": "[Compound 7, 5-Formyl-furan-2-carboxylic acid [(S)-1-((S)-1-hydroxymethyl-3-methyl-butylcarbamoyl)-2-methyl-propyl]-amide]", "values": [{"measurement": "melting point", "value": "46 to 48", "unit": "°C"}]}, {"smiles": "CC(C)C[C@@H](CO)NC(=O)[C@@H](NC(=O)c1ccc(C=O)o1)C(C)C", "note": "[Compound 4, 5-Formyl-furan-2-carboxylic acid [(S)-1-((S)-1-hydroxymethyl-3-methyl-butylcarbamoyl)-2-methyl-propyl]-amide]", "values": [{"measurement": "pIC50", "setting": "[1]", "value": 3.92}]}, {"smiles": "CC(C)C[C@@H](CO)NC(=O)[C@@H](NC(=O)c1ccc(C=O)s1)C(C)C", "note": "[Compound 5, 5-Formyl-thiophene-2-carboxylic acid [(S)-1-((S)-1-hydroxymethyl-3-methyl-butylcarbamoyl)-2-methyl-propyl]-amide]", "values": [{"measurement": "pIC50", "setting": "[1]", "value": 4.52}]}, {"smiles": "CC(C)C[C@@H](C=O)NC(=O)[C@@H](NC(=O)c1ccc(C=O)[nH]1)C(C)C", "note": "[Compound 6, 5-Formyl-1H-pyrrole-2-carboxylic acid [(S)-1-((S)-1-formyl-3-methyl-butylcarbamoyl)-2-methyl-propyl]-amide]", "values": [{"measurement": "pIC50", "setting": "[1]", "value": 7.52}, {"measurement": "Cornea penetration", "setting": "[2]", "value": "yes"}, {"measurement": "Inhibition of cataract formation", "setting": "[3]", "value": "yes"}, {"measurement": "Cataract progression, treated left eye", "setting": "[4]; first month following treatment (p<0.05)", "value": "significantly slower cataract progression"}, {"measurement": "Cataract progression, treated versus untreated eyes", "setting": "[4]; following two months", "value": "no significant differences"}, {"measurement": "Eye irritation", "setting": "[5]", "value": "No sign of irritation"}, {"measurement": "Amount detected", "setting": "[6]; Aqueous humour (treated eye)", "value": 8, "unit": "ng"}, {"measurement": "Compound 6 detected", "setting": "[6]; Aqueous humour (treated eye)", "value": "yes"}, {"measurement": "Compound 6 detected", "setting": "[6]; Kidney", "value": "no"}, {"measurement": "Amount detected", "setting": "[6]; Lens (treated eye)", "value": 6, "unit": "ng"}, {"measurement": "Compound 6 detected", "setting": "[6]; Lens (treated eye)", "value": "yes"}, {"measurement": "Compound 6 detected", "setting": "[6]; Liver", "value": "no"}, {"measurement": "Compound 6 detected", "setting": "[6]; Plasma", "value": "no"}, {"measurement": "Amount detected", "setting": "[6]; Vitreous humour (treated eye)", "value": 4, "unit": "ng"}, {"measurement": "Compound 6 detected", "setting": "[6]; Vitreous humour (treated eye)", "value": "yes"}]}, {"smiles": "CC(C)C[C@@H](CO)NC(=O)[C@@H](NC(=O)c1ccc(C=O)[nH]1)C(C)C", "note": "[Compound 3, 5-Formyl-1H-pyrrole-2-carboxylic acid [(S)-1-((S)-1-hydroxymethyl-3-methyl-butylcarbamoyl)-2-methyl-propyl]-amide]", "values": [{"measurement": "pIC50", "setting": "[1]", "value": 6.01}]}]}
